# Experimental data published in article PMC7201278, “A structural study of TatD from Staphylococcus aureus elucidates a putative DNA-binding mode of a Mg^2+-dependent nuclease” (IUCrJ, 2020).
# Key:
# SaTatD (SAV0491) = target: T1, SaTatD (SAV0491) (Staphylococcus aureus, UniProt W8U6D8); conditions: two phosphates per monomer in active site, coordinated to two Ni2+; SeMet-derived protein; 2.4 M sodium malonate pH 7.0, 20°C
# T1 construct: gene yabD
# [1] = target: SaTatD (SAV0491), TatD-like DNase from Staphylococcus aureus (Mu50 strain) (Staphylococcus aureus (Mu50 strain)); assay: SEC; analytical gel filtration, Superdex 200 (10/300 GL), buffer A (20 mM Tris, 150 mM NaCl pH 8.0), 0.5 ml/min, gel-filtration standards; SaTatD at 20.0 mg/ml (high concentration)
stoichiometry N [1],Compound,"X-ray crystal structure (SAD, 1.85 Å) (SaTatD (SAV0491))"
,O=P(O)(O)O [phosphate],Polar interactions were also observed between the two phosphates and the surface residues of SaTatD
2,"SaTatD (SAV0491), TatD-like DNase from Staphylococcus aureus (Mu50 strain) (enzyme)",
